Experimental data: the NIST ThermoML archive (doi:10.1016/j.jct.2008.10.002)
± gives the expanded uncertainty stated by the source.

Experiments:
[1] = molar heat capacity at constant pressure; conditions: 101.33 kPa, Liquid, Small sample (50 mg) DSC
[2] = 101.33 kPa, Liquid, Vibrating tube method
[3] = excess molar enthalpy (molar enthalpy of mixing); xn = mol fraction of the nth substance listed; conditions: 303.15 K, 101.3 kPa, Liquid

SMILES	molar heat capacity at constant pressure ([1]; 293.15 K) [J/K/mol]	molar heat capacity at constant pressure ([1]; 298.15 K) [J/K/mol]	molar heat capacity at constant pressure ([1]; 303.15 K) [J/K/mol]	molar heat capacity at constant pressure ([1]; 308.15 K) [J/K/mol]	molar heat capacity at constant pressure ([1]; 313.15 K) [J/K/mol]	molar heat capacity at constant pressure ([1]; 318.15 K) [J/K/mol]	mass density ([2]; 293.15 K) [kg/m3]	mass density ([2]; 298.15 K) [kg/m3]	mass density ([2]; 303.15 K) [kg/m3]	mass density ([2]; 308.15 K) [kg/m3]	mass density ([2]; 313.15 K) [kg/m3]	mass density ([2]; 318.15 K) [kg/m3]	excess molar enthalpy ([3]; x1 = 0.1023) [kcal/mol]	excess molar enthalpy ([3]; x1 = 0.2013) [kcal/mol]	excess molar enthalpy ([3]; x1 = 0.3036) [kcal/mol]	excess molar enthalpy ([3]; x1 = 0.4004) [kcal/mol]	excess molar enthalpy ([3]; x1 = 0.4891) [kcal/mol]	excess molar enthalpy ([3]; x1 = 0.5761) [kcal/mol]	excess molar enthalpy ([3]; x1 = 0.6659) [kcal/mol]	excess molar enthalpy ([3]; x1 = 0.8154) [kcal/mol]
CCCCn1cc[n+](C)c1.COS(=O)(=O)[O-] [1-butyl-3-methylimidazolium methyl sulfate]	413.7 ± 6.4	416.2 ± 6.4	418.5 ± 6.5	420.9 ± 6.5	423.3 ± 6.6	425.6 ± 6.6	1210.7 ± 0.4	1207.4 ± 0.4	1204.1 ± 0.4	1200.8 ± 0.4	1197.5 ± 0.4	1194.2 ± 0.4	–	–	–	–	–	–	–	–
CCCCn1cc[n+](C)c1.O=S(=O)([O-])C(F)(F)F [1-butyl-3-methylimidazolium trifluoromethanesulfonate]	421.6 ± 6.5	424.1 ± 6.6	426.7 ± 6.6	429.5 ± 6.7	432.4 ± 6.7	435.5 ± 6.7	1301.6 ± 0.5	1297.6 ± 0.5	1293.7 ± 0.5	1289.7 ± 0.5	1285.8 ± 0.5	1281.9 ± 0.5	–	–	–	–	–	–	–	–
CCCC[n+]1cccc(C)c1.F[B-](F)(F)F [1-butyl-3-methylpyridinium tetrafluoroborate] + O	–	–	–	–	–	–	–	–	–	–	–	–	0.261 ± 0.00574	0.421 ± 0.00884	0.514 ± 0.0108	0.554 ± 0.0115	0.543 ± 0.0112	0.497 ± 0.0105	0.428 ± 0.00908	0.256 ± 0.0055
CCOS(=O)(=O)[O-].CCn1cc[n+](C)c1 [1-ethyl-3-methylimidazolium ethyl sulfate]	392.2 ± 6.1	394.4 ± 6.1	396.8 ± 6.1	399.3 ± 6.2	402 ± 6.2	404.9 ± 6.3	1240.6 ± 0.4	1237.2 ± 0.4	1233.8 ± 0.4	1230.4 ± 0.4	1227 ± 0.4	1223.7 ± 0.4	–	–	–	–	–	–	–	–
CCn1cc[n+](C)c1.O=S(=O)([O-])C(F)(F)F [1-ethyl-3-methylimidazolium trifluoromethanesulfonate]	361.1 ± 5.6	363.2 ± 5.6	365.3 ± 5.7	367.4 ± 5.7	369.6 ± 5.7	371.8 ± 5.8	1389.5 ± 0.6	1385.3 ± 0.6	1381.1 ± 0.6	1376.9 ± 0.6	1372.7 ± 0.6	1368.6 ± 0.6	–	–	–	–	–	–	–	–
O [water]	75.4 ± 1.2	75.3 ± 1.2	75.3 ± 1.2	75.2 ± 1.2	75.2 ± 1.2	75.3 ± 1.2	–	–	–	994.1 ± 0.3	–	–	–	–	–	–	–	–	–	–
